The source of these data is patent US4329347A, “Cardiotonic and antithrombotic sulfur-containing derivatives of carbostyril” (Boehringer Ingelheim GmbH, priority 1978, dated 1982).

As a reminder, the EC50 is the concentration needed to bring the measured effect to its halfway point. As a reminder, the IC50 is the midpoint of a concentration-inhibition curve.

Molecules are shown by their SMILES. Where two headings read alike, the source gives them in different places.

For data set [1], the system named is thrombocyte aggregation in platelet-rich plasma of healthy human donors. Description: Thrombocyte aggregation inhibiting activity by the method of Born and Cross (platelet-rich plasma). The format is cell-based. As to conditions: optical density. On the procedure:
1. Determination of the thrombocyte aggregation inhibiting activity by the method of Born and Cross [J. Physiol. 170, 397 (1964)]:
The thrombocyte aggregation was measured in the platelet-rich plasma of healthy human donors. The decrease in optical density was measured and recorded photometrically after the addition of adenosine diphosphate or collagen. From the angle of inclination of the density curve, the rate of aggregation was estimated (Vmax). The optical density was taken as the point on the curve where the most light was transmitted (O.D.).
The EC50 values in the tables indicate the optical density.
Small doses of collagen were chosen, but sufficient to give irreversible aggregation. To provoke maximum aggregation, about 0.01 ml of the collagen solution was added to 1 ml of platelet-rich plasma. (Commercial collagen of Hormonchemie, Munich). The adenosine diphosphate (ADP) doses were chosen to give only the first phase of the BORN curve. The necessary amount of ADP was about 1×10^-6 mol/l. Commercial ADP of Boehringer Mannheim was used.
The substance dose which produced a 50% inhibition of the thrombozytes aggregation (EC50) was determined graphically.

Data set [2] deals with phosphodiesterase (PDE), supernatant of human blood platelets. Description: PDE inhibition (3H-cAMP hydrolysis). It is filed as biochemical. As to conditions: human blood platelet PDE, 1 μmol/liter 3H-cAMP, pH 7.4, 15 minutes, 37° C. On the procedure:
cAMP is hydrolysed to AMP by phosphodiesterase (PDE) from various sources, including blood platelets. This hydrolysis is inhibited by PDE inhibitors according to the concentration.
The phosphodiesterase used was the 10,000×g supernatant of human blood platelets which had been frozen with water and thawed out again.
An amount of 0.3 ml of a mixture which contained 0.1 mole/liter of trihydroxy-aminomethane (pH 7.4), 3 mmole/liter of magnesium chloride, 1 mmole/liter of AMP, 1 μmol/liter of ^3 H-cAMP (specific activity about 10 MBq/μmol), PDE as well as the substance to be tested and water for the control were incubated for 15 minutes at 37° C.
The incubation was stopped by the addition of 0.5 ml of zinc sulfate (0.266 mole/liter) and 0.5 ml of barium hydroxide (0.266 mole/liter), the precipitate was centrifuged and the activity remaining in the supernatant of the unreacted ^3 H-cAMP was determined. From a comparison of the substance preparations and the control preparations, the concentration for a 50% inhibiting activity (IC50) of the respective substance was calculated.

The next data set relates to mice. Description: Acute toxicity, oral. The format is in vivo. As to conditions: single oral dose of 1,000 mg/kg, 14 days observation. On the procedure: (§1) The acute toxicity of the test compounds was determined on groups of 10 mice each after oral administration of a single dose of 1,000 mg/kg (observation time: 14 days).
A short description of the next data set: Acute toxicity, oral. It is filed as in vivo. To be noted: mouse, in vivo; mice, single oral dose, 14 days observation; read-out: Acute Toxicity per os. On the procedure:
as §1

The next data set deals with conscious mice. Description: Prolongation of the bleeding time (mouse tail). The format is in vivo. To be noted: po, 10 mg/kg orally, after 1 hour, compared to control group, read-out: Prolongation of the bleeding time in % after one hour. On the procedure: The function of the thrombocytes can be determined by measuring the bleeding time. The normal bleeding time in human beings is in the range of 1 to 3 minutes and needs intact thrombozytes in a sufficient number. If the number of thrombocytes is normal and the bleeding time is prolonged, this signifies a disturbed function of the thrombocytes. This is found in some congenital defects of thrombocyte function (V. Willebrand's disease, for example). If, on the other hand it is the aim to prevent spontaneous aggregation of the thrombocytes and occlusion in the arterial system by antithrombotic drugs, the bleeding time should be prolonged as a consequence. Therefore, using antithrombotic substances, a prolongation of the bleeding time is expected. If the plasma coagulation system is not influenced by such a medicine, coagulation tests will give a normal result.
To measure the bleeding time, 10 mg/kg of the test compound is administered orally to conscious mice. After 1 hour, 0.5 mm of the tip of the mousetail is cut off and droplets of blood are gently removed with filter paper every 30 second. The number of drops of blood give a measure for the bleeding time (5 animals/experiment).
The numbers in the following table represent the prolongation in % compared to the control group.

Data set [3] relates to Platelet Thromboses in the Rat. Description: Influence on platelet thromboses in the rat (electrical irritation of a vein). The format is in vivo. As to conditions: male rats, five animals per dose, 20 minutes observation, vs. untreated group; dose not given. On the procedure:
Literature: H. Poliwoda, J. Lilli, G. Hagemann, D. Schyma: Z. ges. exp. Med., 145, 252 (1968)
Male rats (body weight between 70 and 90 grams) received an intraperitoneal Nembutal anesthesia (dose: 50 to 60 mg/kg). To avoid hypothermia, they were positioned on a heated test table (about 37° C.). The respiratory passage was held free by insertion of a tracheal cannula.
After a transverse abdominal incision was made, an intestinal loop was exposed and fixed, and a vein, with a diameter of about 300 μ was prepared. A monopolar platinum electrode embedded in glass and having a tip diameter of about 100μ was applied to the vein as an irritating cathode. The indifferent electrode was applied to the same vessel opposite the cathode. The irritation was provoked by 150 volts of direct current for a period of 100 milliseconds. After the irritation, the area of observation was continuously rinsed with warm (37° C.) physiological salt solution.
The formation and growth of the thrombosis was followed under a binocular microscope over a time period of 20 minutes. During the entire period of observation, the percentage of the vessel volume closed by the thrombosis was estimated at different time intervals.
Five animals per dose were used, and the results were averaged.
In the test compound experiments, the average size of the thrombosis in the treated animal group was compared with that of an untreated animal group. The result was given as "percentage reduction of the average thrombosis size." The following table contains the values obtained.

[4] abbreviates: ADP-induced (about 1×10^-6 mol/l), read-out: EC50 (50% inhibition of thrombocyte aggregation), ADP.
Where [5] appears, read: collagen-induced, read-out: EC50 (50% inhibition of thrombocyte aggregation), Collagen.

Consider `O=C1CCc2cc(OCCCCSc3ccccc3)ccc2N1` [A, 6-(4-Phenylmercapto-butoxy)-3,4-dihydro-carbostyril], for which the EC50 in data set [1] (setting [4]) is > 100000 nM; in data set [1] (setting [5]), 50000 nM. The same molecule showed an IC50 in data set [2] of 780 nM. Further, the “animals died (acute toxicity per os)” value in the data set on mice is reported as 0 out of 10 animals. The LD50 at 336 h in the data set “Acute toxicity, oral” is > 1000 mg/kg. Moreover, the change in vivo at 10 mg/kg with conscious mice was 145%.
In turn, `Nc1c(Br)cc([S+]([O-])CCCCOc2ccc3c(c2)CCC(=O)N3)cc1Br` (centres unmarked) [AA, 6-[4-(3,5-Dibromo-4-aminophenylsulfinyl)-butoxy]-3,4-dihydrocarbostyril] had a half-maximal inhibitory concentration (IC50) in data set [2] of 250 nM.
Still for that read-out and setting: with `Nc1c(Br)cc([S+]([O-])CCCCOc2ccc3[nH]c(=O)ccc3c2)cc1Br` (centres unmarked) [BB, 6-[4-(3,5-Dibromo-4-aminophenylsulfinyl)-butoxy]-carbostyril] the figure was 50 nM; with `O=C1CCc2cc(OCCCC[S+]([O-])c3ccc(C4CCCCC4)cc3)ccc2N1` (centres unmarked) [CC, 6-[4-(4-Cyclohexylphenylsulfinyl)-butoxy]-3,4-dihydro-carbostyril], 1600 nM.
For `O=C1CCc2cc(OCCCCSc3ccccn3)ccc2N1` [D, 6-[4-(2-Pyridyl-mercapto)-butoxy]-3,4-dihydro-carbostyril], the EC50 in data set [1] (setting [4]) is > 100000 nM; in data set [1] (setting [5]), 45000 nM. In data set [2], this molecule returned a 50% inhibitory concentration (IC50) of 1600 nM. For the same molecule, the “animals died (acute toxicity per os)” value in the data set on mice was 0 out of 10 animals. For the same molecule, the LD50 at 336 h in “Acute toxicity, oral” is > 1000 mg/kg. In the data set on conscious mice, the change in vivo at 10 mg/kg is 76%.
With `O=c1ccc2cc(OCCCC[S+]([O-])c3ccc(C4CCCCC4)cc3)ccc2[nH]1` (centres unmarked) [DD, 6-[4-(4-Cyclohexylphenylsulfinyl)-butoxy]-carbostyril], the IC50 in data set [2] is 40 nM. Also, in data set [3], the “Percentage Reduction of the Average Thrombosis Size” value (from here on “Percentage Reduction”) is on record as 11%.
In data set [2], `CC(C)(C)c1ccc([S+]([O-])CCCCOc2ccc3[nH]c(=O)ccc3c2)cc1` (centres unmarked) [EE, 6-[4-(4-tert.-Butylphenylsulfinyl)-butoxy]-carbostyril] showed an IC50 of 30 nM.
With `O=C1CCc2cc(OCC[S+]([O-])c3ccccc3)ccc2N1` (centres unmarked) [G, 6-(2-Phenylsulfinyl-ethoxy)-3,4-dihydro-carbostyril], the 50% effective concentration (EC50) is 17000 nM in data set [1] (setting [4]) and 3500 nM in data set [1] (setting [5]). Also, in data set [2], half-maximal inhibition (IC50) was put at 3400 nM. The “animals died (acute toxicity per os)” value in the data set on mice is 0 out of 10 animals. Further, in “Acute toxicity, oral”, the LD50 at 336 h was > 1000 mg/kg. In the data set with conscious mice, the change in vivo at 10 mg/kg amounted to 5%.
For the molecule `O=C1CCc2cc(OCCCC[S+]([O-])Cc3ccccc3)ccc2N1` (centres unmarked) [H, 6-(4-Benzylsulfinyl-butoxy)-3,4-dihydro-carbostyril], the EC50 in data set [1] (setting [4]) came to 14000 nM; in data set [1] (setting [5]) it was 2500 nM. In data set [2], this molecule came in with an IC50 of 1600 nM. The “animals died (acute toxicity per os)” value in the data set with mice was 0 out of 10 animals. In addition, in “Acute toxicity, oral”, the LD50 at 336 h was > 1000 mg/kg. Moreover, the change in vivo at 10 mg/kg with conscious mice came out at 29%.
Take `CC(C)(C)[S+]([O-])CCCCOc1ccc2c(c1)CCC(=O)N2` (centres unmarked) [HH, 6-(4-tert.Butylsulfinyl-butoxy)-3,4-dihydrocarbostyril]: the “Percentage Reduction” value in data set [3] is reported as 19%.
On the same count and under the same terms, with `O=C1CCc2cccc(OCCCCSc3ccccc3)c2N1` [II, 8-(4-Phenylmercapto-butoxy)-3,4-dihydro-carbostyril] the figure was 4%; with `O=c1ccc2cc(OCCCC[S+]([O-])c3ccccn3)ccc2[nH]1` (centres unmarked) [JJ, 6-[4-(2-Pyridylsulfinyl)-butoxy]-carbostyril], 29%.
As to `O=C1CCc2cc(OCCCC[S+]([O-])C3CCCCC3)ccc2N1` (centres unmarked) [K, 6-(4-Cyclohexylsulfinyl-butoxy)-3,4-dihydro-carbostyril], the EC50 was found to be 12000 nM in data set [1] (setting [4]) and 4500 nM in data set [1] (setting [5]). It took 2500 nM to reach half-maximal inhibition in data set [2] (IC50). Moreover, the “animals died (acute toxicity per os)” value with mice is on record as 0 out of 10 animals. The LD50 at 336 h in the data set “Acute toxicity, oral” is > 1000 mg/kg. In addition, the change in vivo at 10 mg/kg in the data set on conscious mice worked out at 12%.
For `Cc1cc(=O)[nH]c2ccc(OCCCC[S+]([O-])c3ccccn3)cc12` (centres unmarked) [KK, 4-Methyl-6-[4-(2-pyridylsulfinyl)-butoxy]-carbostyril], the “Percentage Reduction” value in data set [3] stood at 17%.
On to `O=c1ccc2cc(OCCCC[S+]([O-])c3ccccc3)ccc2[nH]1` (centres unmarked) [N, 6-(4-Phenylsulfinyl-butoxy)-carbostyril], for which the half-maximal effective concentration (EC50) was found to be 3000 nM in data set [1] (setting [4]) and 600 nM in data set [1] (setting [5]). In data set [2], this molecule yielded a 50% inhibitory concentration (IC50) of 470 nM. Moreover, the “Percentage Reduction” value in data set [3] was 24%.
Take `CC(C)(C)c1cc([S+]([O-])CCCCOc2ccc3[nH]c(=O)ccc3c2)cc(C(C)(C)C)c1O` (centres unmarked) [O, 6-[4-(4-Hydroxy-3,5-di-tert. butylphenyl-sulfinyl)-butoxy]-carbostyril]: the values for the EC50 in data set [1] (setting [4]) and in data set [1] (setting [5]) were 500 nM and 200 nM, respectively. Further, it took 79 nM to reach half-maximal inhibition in data set [2] (IC50). Moreover, the “Percentage Reduction” value in data set [3] came to 17%. The “animals died (acute toxicity per os)” value in the data set with mice is on record as 0 out of 10 animals. Further, in “Acute toxicity, oral”, the LD50 at 336 h was > 1000 mg/kg. In addition, the change in vivo at 10 mg/kg with conscious mice worked out at 73%.
With `O=C1CCc2cc(OCCCCS(=O)(=O)c3ccc(Cl)c(Cl)c3)ccc2N1` [R, 6-[4-(3,4-Dichlorophenyl-sulfonyl)-butoxy]-3,4-dihydro-carbostyril], the 50% effective concentration (EC50) in data set [1] (setting [4]) was found to be 25000 nM; in data set [1] (setting [5]), 1500 nM. This molecule also had an IC50 in data set [2] of 1800 nM. Moreover, the “animals died (acute toxicity per os)” value with mice is on record as 0 out of 10 animals. Also, the LD50 at 336 h in “Acute toxicity, oral” is > 1000 mg/kg. Moreover, the change in vivo at 10 mg/kg in the data set with conscious mice was found to be 30%.
Molecule `O=c1ccc2cc(OCCCC[S+]([O-])c3ccc(-c4ccccc4)cc3)ccc2[nH]1` (centres unmarked) [V, 6-[4-(4-Biphenylylsulfinyl)-butoxy]-carbostyril] displayed a half-inhibitory concentration (IC50) in data set [2] of 120 nM.
In data set [2], `O=c1ccc2cc(OCCCC[S+]([O-])c3ccc4ccccc4n3)ccc2[nH]1` (centres unmarked) [W, 6-[4-(2-Quinolylsulfinyl)-butoxy]-carbostyril] displayed a half-maximal inhibitory concentration (IC50) of 140 nM.
Still for that read-out and setting: with `O=c1ccc2cc(OCCCC[S+]([O-])C3CCCCC3)ccc2[nH]1` (centres unmarked) [X, 6-(4-Cyclohexylsulfinyl-butoxy)-carbostyril] the figure was 700 nM; with `O=c1ccc2c(Br)c(OCCCC[S+]([O-])c3ccccc3)ccc2[nH]1` (centres unmarked) [Y, 5-Bromo-6-(4-phenylsulfinyl-butoxy)-carbostyril], 100 nM; with `CN(C(=O)C[S+]([O-])CCOc1ccc2[nH]c(=O)ccc2c1)C1CCCCC1` (centres unmarked) [Z, 6-[2-(N-Methyl-N-cyclohexyl-carbamidomethyl-sulfinyl)-ethoxy]-carbostyril], 500 nM.
